Assay results published in ChEMBL document CHEMBL1140463, “From ATP to AZD6140: the discovery of an orally active reversible P2Y12 receptor antagonist for the prevention of thrombosis” (Bioorg Med Chem Lett, 2007).
Activity calls are given as the source filed them. No cut-off for these calls is given here.

Key:
Hepatocyte [1] = assay: Metabolic stability in human hepatocytes in presence of NADPH relative to dextromethorphan; assay type: ADME, cell-based
P2Y purinoceptor 12 = P2Y purinoceptor 12 (Homo sapiens, UniProt Q9H244); assay: Displacement of [125I] labeled ligand from human P2Y12 receptor in human platelets
P2Y purinoceptor 12, sequence (Q9H244 whole entry): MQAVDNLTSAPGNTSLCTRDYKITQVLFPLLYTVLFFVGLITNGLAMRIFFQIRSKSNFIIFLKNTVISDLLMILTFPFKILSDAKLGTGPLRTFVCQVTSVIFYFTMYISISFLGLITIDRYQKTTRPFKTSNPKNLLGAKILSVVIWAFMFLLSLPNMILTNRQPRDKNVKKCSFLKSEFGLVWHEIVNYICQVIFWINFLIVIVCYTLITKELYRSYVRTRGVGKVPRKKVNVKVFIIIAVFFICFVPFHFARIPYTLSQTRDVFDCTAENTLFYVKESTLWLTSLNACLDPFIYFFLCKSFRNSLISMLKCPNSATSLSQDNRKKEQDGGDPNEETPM

Hepatocyte [2] = assay: Metabolic stability in human hepatocytes in presence of UDPGA relative to zileuton; assay type: ADME, cell-based
[3] = Oral bioavailability in rat at 3 to 10 mg/kg; assay type: ADME, organism-based; conditions: in vivo
[4] = Volume of distribution at steady state in rat at 3 mg/kg, iv; assay type: ADME, organism-based; parameters: dose 3 mg/kg, route intravenous; conditions: in vivo, read-out: Vdss
[5] = Half life in rat at 3 mg/kg, iv; assay type: ADME, organism-based; parameters: dose 3 mg/kg, route intravenous; conditions: in vivo
in vivo = conditions: rat, iv, 3 mg/kg
Description: Plasma clearance in rat at 3 mg/kg, iv

[6] = Oral bioavailability in dog at 1 mg/kg; assay type: ADME, organism-based, Canis lupus familiaris; conditions: in vivo
[7] = Plasma clearance in dog at 1 mg/kg, iv; assay type: ADME, organism-based, Canis lupus familiaris; parameters: dose 1 mg/kg, route intravenous
[8] = Half life in dog at 1 mg/kg, iv; assay type: ADME, organism-based, Canis lupus familiaris; parameters: dose 1 mg/kg, route intravenous; conditions: in vivo
[9] = Volume of distribution at steady state in dog at 1 mg/kg, iv; assay type: ADME, organism-based, Canis lupus familiaris; parameters: dose 1 mg/kg, route intravenous; conditions: in vivo, read-out: Vdss
Canis familiaris = assay: Inhibition of ADP-induced platelet aggregation in po dosed dog; assay type: functional, organism-based; conditions: Canis lupus familiaris

Row | Compound | Stability (Hepatocyte [1]) | Ki (P2Y purinoceptor 12) [nM] | Ratio (Hepatocyte [2]) | bioavailability [3] [%] | Vd [4] [L/kg] | half-life [5] [h] | Ratio (Hepatocyte [1]) | clearance (in vivo; plasma) [mL/min/kg] | Stability (Hepatocyte [2]) | bioavailability [6] [%] | clearance [7] [mL/min/kg] | half-life [8] [h] | Vd [9] [L/kg] | Activity (Canis familiaris) | clearance (in vivo; in vivo) [mL/min/kg]
1 | CCCSc1nc(N[C@@H]2C[C@H]2c2ccccc2)c2nnn([C@@H]3C[C@H](O)[C@@H](O)[C@H]3O)c2n1 | Stable | 2 | 3 | 50 |  |  |  |  |  |  |  |  |  |  | 
2 | CCCSc1nc(N[C@@H]2C[C@H]2c2ccccc2)c2nnn([C@@H]3C[C@H](CO)[C@@H](O)[C@H]3O)c2n1 [listing 1 of 2 here] |  | 5.01 | 5 | 35 | 2.9 | 2.5 | > 30 | 16 |  |  |  |  |  |  | 
3 | OCCO[C@H]1C[C@@H](n2nnc3c(N[C@@H]4C[C@H]4c4ccc(F)c(F)c4)nc(SCCC(F)(F)F)nc32)[C@H](O)[C@@H]1O |  | 0.631 |  | 9 | 2.1 | 2.5 | 32 | 12 | Stable |  |  |  |  |  | 
4 | OC[C@H]1C[C@@H](n2nnc3c(N[C@@H]4C[C@H]4c4ccccc4)nc(SCCC(F)(F)F)nc32)[C@H](O)[C@@H]1O | Stable | 5.01 | 19 |  |  |  |  |  |  |  |  |  |  |  | 
5 | CCCSc1nc(N[C@@H]2C[C@H]2c2ccc(F)c(F)c2)c2nnn([C@@H]3C[C@H](OCCO)[C@@H](O)[C@H]3O)c2n1 [TICAGRELOR] |  | 2 |  | 24 | 3.8 | 2.6 | 24 | 21 | Stable | 72 | 9 | 2.9 | 3 |  | 
6 | CCCSc1nc(N[C@@H]2C[C@H]2c2ccccc2)c2nnn([C@@H]3C[C@H](CO)[C@@H](O)[C@H]3O)c2n1 [listing 2 of 2 here] |  |  |  |  |  |  |  |  |  |  |  |  |  | Active | 
7 | CCCCNc1nc(SCCC)nc2c1nnn2[C@@H]1C[C@H](C(=O)O)[C@@H](O)[C@H]1O |  | 5.01 |  | < 5 | 0.4 | 0.5 |  | 30 |  |  |  |  |  |  | 
8 | CCCSc1nc(N[C@@H]2C[C@H]2c2ccccc2)c2nnn([C@@H]3CC[C@@H](O)[C@H]3O)c2n1 |  | 2.51 | 1 | 38 |  |  |  |  |  |  |  |  |  |  | 
9 | CCCSc1nc(N[C@@H]2C[C@H]2c2ccccc2)c2nnn([C@@H]3C[C@H](CO)[C@@H](O)[C@H]3O)c2n1.Cl |  | 6.31 | 19 | 37 |  |  | 27 |  |  |  |  |  |  |  | 
10 | CCCSc1nc(N[C@@H]2C[C@H]2c2ccccc2)c2nnn([C@@H]3C[C@H](C(=O)O)[C@@H](O)[C@H]3O)c2n1 |  | 0.251 |  |  | 0.5 | 0.5 |  | 16 |  |  |  |  |  |  | 
11 | OC[C@H]1C[C@@H](n2nnc3c(N[C@@H]4C[C@H]4c4ccc(F)c(F)c4)nc(SCCC(F)(F)F)nc32)[C@H](O)[C@@H]1O |  | 5.01 |  | 17 | 2.7 | 3 | > 30 | 11 | Stable | 59 | 16.5 | 4.8 | 5.6 |  | 
12 | CCCCNc1nc(SCCC)nc2c1nnn2[C@@H]1C[C@H](CO)[C@@H](O)[C@H]1O |  | 79.4 |  | < 5 | 2.3 | 1.2 |  |  |  |  |  |  |  |  | 29
13 | CCCSc1nc(N[C@@H]2C[C@H]2c2ccccc2)c2nnn([C@@H]3C[C@H](C(N)=O)[C@@H](O)[C@H]3O)c2n1 |  | 1.58 |  | < 5 | 2.2 | 2 |  | 20 |  |  |  |  |  |  | 
14 | CCCCNc1nc(SCCC)nc2c1nnn2[C@@H]1C[C@H](C(N)=O)[C@@H](O)[C@H]1O |  | 20 |  | < 5 | 1.6 | 1.4 |  | 21 |  |  |  |  |  |  | 
15 | CCCSc1nc(N[C@@H]2C[C@H]2c2ccccc2)c2nnn([C@@H]3C[C@H](OCCO)[C@@H](O)[C@H]3O)c2n1 |  | 3.16 | 24 | 26 |  |  | 13 |  |  |  |  |  |  |  | 
